The source of these data is patent publication US11161855B2, “Tricyclic fused thiophene derivatives as JAK inhibitors” (Incyte Corporation, priority 2012, dated 2021).

In this experiment the test system is human JAK1 (a.a. 837-1142). Put plainly: In vitro JAK kinase assay (HTRF), JAK1. In kind it is biochemical. The settings on record: ratio of IC50s, 1 mM ATP. How it is done: Compounds herein were tested for inhibitory activity of JAK targets according to the following in vitro assay described in Park et al., Analytical Biochemistry 1999, 269, 94-104. The catalytic domains of human JAK1 (a.a. 837-1142), JAK2 (a.a. 828-1132) and JAK3 (a.a. 781-1124) were expressed using baculovirus in insect cells and purified. The catalytic activity of JAK1, JAK2 or JAK3 was assayed by measuring the phosphorylation of a biotinylated peptide. The phosphorylated peptide was detected by homogenous time resolved fluorescence (HTRF). IC50s of compounds were measured for each kinase in the 40 μL reactions that contain the enzyme, ATP and 500 nM peptide in 50 mM Tris (pH 7.8) buffer with 100 mM NaCl, 5 mM DTT, and 0.1 mg/mL (0.01%) BSA. For the 1 mM IC50 measurements, ATP concentration in the reactions was 1 mM. Reactions were carried out at room temperature for 1 hour and then stopped with 20 μL 45 mM EDTA, 300 nM SA-APC, 6 nM Eu-Py20 in assay buffer (Perkin Elmer, Boston, Mass.). Binding to the Europium labeled antibody took place for 40 minutes and HTRF signal was measured on a PHERA star plate reader (BMG, Cary, N.C.). The Example compounds were each tested in the Example A assay (see Table 1 for data for the compounds of the examples as tested by the assay of Example A at 1 mM ATP).
As to `CCNC(=O)C[C@H]1CC[C@H](n2c([C@@H](C)O)nc3cnc4ccsc4c32)CC1` [Example 31, N-Ethyl-2-(trans-4-{2-[(1R)-1-hydroxyethyl]-1H-imidazo[4,5-d]thieno[3,2-b]pyridin-1-yl}cyclohexyl)acetamide], the JAK2/JAK1 is >10.

Regarding `C[C@@H](O)c1nc2cnc3ccsc3c2n1C1CCCC(CCC#N)C1` (stereo partly drawn) [Example 32, 3-(3-{2-[(1R)-1-Hydroxyethyl]-1H-imidazo[4,5-d]thieno[3,2-b]pyridin-1-yl}cyclohexyl)propanenitrile], the JAK2/JAK1 is listed as >10.

With `Cc1nc2cnc3ccsc3n2c1-c1ccc(CC#N)cc1` [Example 33, [4-(7-Methylimidazo[1,2-a]thieno[3,2-e]pyrazin-8-yl)phenyl]acetonitrile], the JAK2/JAK1 is on record as >7.

In the case of `Cc1nc2cnc3ccsc3c2n1[C@H]1CC[C@H](CC#N)OC1` [Example 38, [(2R,5S)-5-(2-Methyl-1H-imidazo[4,5-d]thieno[3,2-b]pyridin-1-yl)tetrahydro-2H-pyran-2-yl]acetonitrile], the JAK2/JAK1 is >10.

As for `CCc1nc2cnc3ccsc3c2n1[C@H]1CC[C@H](CC#N)OC1` [Example 39, [(2R,5S)-5-(2-Ethyl-1H-imidazo[4,5-d]thieno[3,2-b]pyridin-1-yl)tetrahydro-2H-pyran-2-yl]acetonitrile], the JAK2/JAK1 is reported as >10.

For the compound `CC(C)c1nc2cnc3ccsc3c2n1[C@H]1CC[C@H](CC#N)OC1` [Example 42, [(2R,5S)-5-(2-Isopropyl-1H-imidazo[4,5-d]thieno[3,2-b]pyridin-1-yl)tetrahydro-2H-pyran-2-yl]acetonitrile], the JAK2/JAK1 was >10.

As for `N#CC[C@H]1CC[C@H](n2c(C3CC3)nc3cnc4ccsc4c32)CO1` [Example 43, [(2R,5S)-5-(2-Cyclopropyl-1H-imidazo[4,5-d]thieno[3,2-b]pyridin-1-yl)tetrahydro-2H-pyran-2-yl]acetonitrile], the JAK2/JAK1 was >10.

For `C[C@@H](O)c1nc2cnc3ccsc3c2n1[C@@H]1CC[C@@H](CC#N)OC1` [Example 44, ((2S,5R)-5-{2-[(1R)-1-Hydroxyethyl]-1H-imidazo[4,5-d]thieno[3,2-b]pyridin-1-yl}tetrahydro-2H-pyran-2-yl)acetonitrile], the JAK2/JAK1 is recorded as >10.

On to `C[C@H](O)c1nc2cnc3ccsc3c2n1[C@H]1CC[C@H](CC#N)OC1` [Example 45, ((2R,5S)-5-{2-[(1S)-1-Hydroxyethyl]-1H-imidazo[4,5-d]thieno[3,2-b]pyridin-1-yl}tetrahydro-2H-pyran-2-yl)acetonitrile], for which the JAK2/JAK1 is on record as >10.

For `Cc1nn2cnc3ccsc3c2c1-c1ccc(CC#N)cc1` [Example 46, [4-(8-Methylpyrazolo[1,5-c]thieno[2,3-e]pyrimidin-9-yl)phenyl]acetonitrile], the JAK2/JAK1 is on record as >3.

With `CCc1nc2cnc3ccsc3c2n1[C@H]1CC[C@H](CC#N)CC1` [Example 47, [trans-4-(2-Ethyl-1H-imidazo[4,5-d]thieno[3,2-b]pyridin-1-yl)cyclohexyl]acetonitrile], the JAK2/JAK1 is >10.

For the compound `Cc1nc2cnc3ccsc3c2n1[C@H]1CC[C@H](CC#N)CC1` [Example 48, [trans-4-(2-Methyl-1H-imidazo[4,5-d]thieno[3,2-b]pyridin-1-yl)cyclohexyl]acetonitrile], the JAK2/JAK1 is on record as >7.

Turning to `C[C@@H](O)c1nc2cnc3ccsc3c2n1[C@H]1CC[C@@H](CC#N)C1.O=C(O)C(F)(F)F` [Example 49, ((1R,3S)-3-{2-[(1R)-1-Hydroxyethyl]-1H-imidazo[4,5-d]thieno[3,2-b]pyridin-1-yl}cyclopentyl)acetonitrile Trifluoroacetate], the JAK2/JAK1 is on record as >10.

Consider `CCOC(=O)N1CCC[C@H](n2c([C@@H](C)O)nc3cnc4ccsc4c32)C1` [Example 50, Ethyl (3S)-3-{2-[(1R)-1-hydroxyethyl]-1H-imidazo[4,5-d]thieno[3,2-b]pyridin-1-yl}piperidine-1-carboxylate], for which the JAK2/JAK1 is on record as >10.

With `C[C@@H](O)c1nc2cnc3ccsc3c2n1[C@H]1CCCN(C(=O)CC#N)C1.O=C(O)C(F)(F)F` [Example 51, 3-((3S)-3-{2-[(1R)-1-Hydroxyethyl]-1H-imidazo[4,5-d]thieno[3,2-b]pyridin-1-yl}piperidin-1-yl)-3-oxopropanenitrile trifluoroacetate], the JAK2/JAK1 is on record as >10.

As to `C[C@@H](O)c1nc2cnc3ccsc3c2n1[C@H]1CCCN(C(=O)CCc2cn[nH]c2)C1` [Example 53, (1R)-1-(1-{(3S)-1-[3-(1H-Pyrazol-4-yl)propanoyl]piperidin-3-yl}-1H-imidazo[4,5-d]thieno[3,2-b]pyridin-2-yl)ethanol], the JAK2/JAK1 was >10.

For `C[C@@H](O)c1nc2cnc3ccsc3c2n1[C@H]1CCCN(C(=O)CCc2cccnc2)C1` [Example 54, (1R)-1-{1-[(3S)-1-(3-Pyridin-3-ylpropanoyl)piperidin-3-yl]-1H-imidazo[4,5-d]thieno[3,2-b]pyridin-2-yl}ethanol], the JAK2/JAK1 is listed as >10.

Regarding `CC(CC(=O)N1CCC[C@H](n2c([C@@H](C)O)nc3cnc4ccsc4c32)C1)c1ccccc1` (stereo partly drawn) [Example 55, (1R)-1-{1-[(3S)-1-(3-Phenylbutanoyl)piperidin-3-yl]-1H-imidazo[4,5-d]thieno[3,2-b]pyridin-2-yl}ethanol], the JAK2/JAK1 was >10.

Regarding `C[C@@H](O)c1nc2cnc3ccsc3c2n1[C@H]1CCCN(CCC#N)C1` [Example 56, 3-((3S)-3-{2-[(1R)-1-Hydroxyethyl]-1H-imidazo[4,5-d]thieno[3,2-b]pyridin-1-yl}piperidin-1-yl)propanenitrile], the JAK2/JAK1 is >10.

For `C[C@@H](O)c1nc2cnc3ccsc3c2n1[C@H]1CCCN(C(=O)CCc2ccccc2)C1` [Example 57], the JAK2/JAK1 was >10.

For `C[C@@H](O)c1nc2cnc3ccsc3c2n1[C@H]1CCCN(C(=O)CCC#N)C1` [Example 58, 4-((3S)-3-{2-[(1R)-1-Hydroxyethyl]-1H-imidazo[4,5-d]thieno[3,2-b]pyridin-1-yl}piperidin-1-yl)-4-oxobutanenitrile], the JAK2/JAK1 is recorded as >10.

Turning to `C[C@@H](O)c1nc2cnc3ccsc3c2n1[C@H]1CCCN(C(=O)CCCC#N)C1` [Example 59, 5-((3S)-3-{2-[(1R)-1-Hydroxyethyl]-1H-imidazo[4,5-d]thieno[3,2-b]pyridin-1-yl}piperidin-1-yl)-5-oxopentanenitrile], the JAK2/JAK1 is recorded as >10.

Take `C[C@@H](O)c1nc2cnc3ccsc3c2n1C1CCN(CCCC(F)(F)F)CC1` [Example 60, (1R)-1-{1-[1-(4,4,4-Trifluorobutyl)piperidin-4-yl]-1H-imidazo[4,5-d]thieno[3,2-b]pyridin-2-yl}ethanol]: the JAK2/JAK1 was >10.

Take `C[C@@H](O)c1nc2cnc3ccsc3c2n1C1CCN(CC#N)CC1.O=C(O)C(F)(F)F` [Example 61, (4-{2-[(1R)-1-Hydroxyethyl]-1H-imidazo[4,5-d]thieno[3,2-b]pyridin-1-yl}piperidin-1-yl)acetonitrile trifluoroacetate]: the JAK2/JAK1 is >10.

As to `C[C@@H](O)c1nc2cnc3ccsc3c2n1[C@H]1CCN(CCC#N)C1` [Example 62, 3-((3S)-3-{2-[(1R)-1-Hydroxyethyl]-1H-imidazo[4,5-d]thieno[3,2-b]pyridin-1-yl}pyrrolidin-1-yl)propanenitrile], the JAK2/JAK1 is given as >10.

Turning to `C[C@@H](O)c1nc2cnc3ccsc3c2n1[C@H]1CCN(C(=O)CC#N)C1` [Example 63, 3-((3S)-3-{2-[(1R)-1-Hydroxyethyl]-1H-imidazo[4,5-d]thieno[3,2-b]pyridin-1-yl}pyrrolidin-1-yl)-3-oxopropanenitrile], the JAK2/JAK1 is reported as >6.

In the case of `C[C@@H](O)c1nc2cnc3ccsc3c2n1[C@H]1CCN(CCCC(F)(F)F)C1` [Example 64, (1R)-1-{1-[(3S)-1-(4,4,4-Trifluorobutyl)pyrrolidin-3-yl]-1H-imidazo[4,5-d]thieno[3,2-b]pyridin-2-yl}ethanol], the JAK2/JAK1 is listed as >10.

Regarding `C[C@@H](O)c1nc2cnc3ccsc3c2n1[C@H]1CCN(CCCC#N)C1` [Example 65, 4-((3S)-3-{2-[(1R)-1-Hydroxyethyl]-1H-imidazo[4,5-d]thieno[3,2-b]pyridin-1-yl}pyrrolidin-1-yl)butanenitrile], the JAK2/JAK1 is recorded as >10.

With `C[C@@H](O)c1nc2cnc3ccsc3c2n1[C@H]1CCN(CCCCC#N)C1` [Example 66, 5-((3S)-3-{2-[(1R)-1-Hydroxyethyl]-1H-imidazo[4,5-d]thieno[3,2-b]pyridin-1-yl}pyrrolidin-1-yl)pentanenitrile], the JAK2/JAK1 is given as >10.

For the compound `C[C@@H](O)c1nc2cnc3ccsc3c2n1[C@H]1CC[C@H](CC#N)[C@H](N)C1` [Example 67, ((1R,2R,4S)-2-Amino-4-{2-[(1R)-1-hydroxyethyl]-1H-imidazo[4,5-d]thieno[3,2-b]pyridin-1-yl}cyclohexyl)acetonitrile], the JAK2/JAK1 is given as >10.

On to `CC(N)c1nc2cnc3ccsc3c2n1[C@H]1CC[C@H](CC#N)OC1.O=C(O)C(F)(F)F` (stereo partly drawn) [Example 68, {(2R,5S)-5-[2-(1-Aminoethyl)-1H-imidazo[4,5-d]thieno[3,2-b]pyridin-1-yl]tetrahydro-2H-pyran-2-yl}acetonitrile Trifluoro Acetate], for which the JAK2/JAK1 is >10.
